# Where a SMILES comes first, the peptide text is derived from it. Bridges are numbered along the chain shown (N, C = ends). [ ]: non-standard residue; d: D form. The star is where a group is joined. Phe(4-COOH) = N[C@@H](Cc1ccc(C(=O)O)cc1)C(=O)O; Bip = N[C@@H](Cc1ccc(-c2ccccc2)cc1)C(=O)O; 4Pal = N[C@@H](Cc1ccncc1)C(=O)O; Cha = N[C@@H](CC1CCCCC1)C(=O)O; Cit = NC(=O)NCCC[C@H](N)C(=O)O; Carboxymethyl = O=C(O)C*; NMeA = CN[C@@H](C)C(=O)O; Orn = NCCC[C@H](N)C(=O)O; Aun = NCCCCCCCCCCC(=O)O; Dab = NCC[C@H](N)C(=O)O; Dap = NC[C@H](N)C(=O)O; AEEA = NCCOCCOCC(=O)O
# Molecular target: T1, PD-1/PD-L1 interaction (PE-labeled human PD-L1-Ig binding to Jurkat cell line over-expressing human PD-1) (Homo sapiens, UniProt Q15116)
# T1 construct: expressed in transfected cells; host or cells: Jurkat
# Test: Jurkat-PD-1 Cell Binding High-Content Screening Assay (CBA)
# Details: Jurkat-hPD-1 cells, PE-labeled PD-L1-Ig 20 nM final; read-out: Jurkat HPD1 PDL1 IC50
# Method in brief: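 Jurkat cells overexpressing human PD-1 (8×10^3/well, DMEM + 10% FCS) preincubated with compound 2 h at 37 °C, then PE-labelled human PD-L1-Ig (20 nM final) for 1 h. Cells fixed in paraformaldehyde with Hoechst 33342; bound PD-L1 quantified by high-content imaging.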
# T1 sequence (Q15116 25-288): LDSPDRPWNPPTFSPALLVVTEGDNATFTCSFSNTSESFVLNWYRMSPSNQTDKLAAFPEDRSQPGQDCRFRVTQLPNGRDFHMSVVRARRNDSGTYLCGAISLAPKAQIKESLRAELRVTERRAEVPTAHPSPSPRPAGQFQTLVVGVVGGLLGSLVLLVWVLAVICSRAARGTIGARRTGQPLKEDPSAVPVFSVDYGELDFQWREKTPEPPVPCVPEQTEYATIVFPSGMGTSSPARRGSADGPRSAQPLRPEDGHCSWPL
row,SMILES,IC50 [µM]
1,CC(C)C[C@@H]1NC(=O)[C@H](Cc2c[nH]c3ccccc23)NC(=O)[C@H](CC(=O)O)NC(=O)[C@H](Cc2ccc(C(=O)O)cc2)NC(=O)[C@H](Cc2ccc(OCC(=O)O)cc2)NC(=O)CSC[C@@H](C(=O)NCC(=O)NCCOCCOCC(=O)N[C@@H](CCCN)C(=O)NCCCCCCCCCCC(=O)O)NC(=O)[C@H](CCCN)NC(=O)[C@H](C(C)C)NC(=O)[C@H](CC2CCCCC2)NC(=O)[C@H](CCN)NC(=O)[C@@H](CC(C)C)NC(=O)[C@H](C)N(C)C(=O)[C@H](C(C)C)NC(=O)[C@H](Cc2ccc(-c3ccccc3)cc2)NC1=O [Example 2162] ({CH2CO}-Y(Carboxymethyl)[Phe(4-COOH)]DWL[Bip]V[NMeA][dL][Dab][Cha]V[Orn]CG[AEEA][Orn][Aun]-OH; thioether N-14),0.0078
2,CC(C)C[C@@H]1NC(=O)[C@H](Cc2c[nH]c3ccccc23)NC(=O)[C@H](CC(=O)O)NC(=O)[C@H](Cc2ccc(O)cc2)NC(=O)[C@H](Cc2ccncc2)NC(=O)CSC[C@@H](C(=O)NCCOCCOCC(=O)N[C@@H](CCCN)C(=O)NCCCCCCCCCCC(=O)O)NC(=O)[C@H](CCCN)NC(=O)[C@H](C(C)C)NC(=O)[C@H](CC2CCCCC2)NC(=O)[C@H](CCN)NC(=O)[C@@H](CC(C)C)NC(=O)[C@H](C)N(C)C(=O)[C@H](C(C)C)NC(=O)[C@H](Cc2ccc(-c3ccccc3)cc2)NC1=O [Example 2163] ({CH2CO}-[4Pal]YDWL[Bip]V[NMeA][dL][Dab][Cha]V[Orn]C[AEEA][Orn][Aun]-OH; thioether N-14),0.0176
3,CC(C)C[C@@H]1NC(=O)[C@H](Cc2c[nH]c3ccccc23)NC(=O)[C@H](CC(=O)O)NC(=O)[C@H](Cc2ccncc2)NC(=O)[C@H](Cc2ccc(OCC(=O)O)cc2)NC(=O)CSC[C@@H](C(=O)NCCOCCOCC(=O)N[C@@H](CN)C(=O)NCCCCCCCCCCC(=O)O)NC(=O)[C@H](CCCNC(N)=O)NC(=O)[C@H](C(C)C)NC(=O)[C@H](CC2CCCCC2)NC(=O)[C@H](CCN)NC(=O)[C@@H](CC(C)C)NC(=O)[C@H](C)N(C)C(=O)[C@H](C(C)C)NC(=O)[C@H](Cc2ccc(-c3ccccc3)cc2)NC1=O [Example 2164] ({CH2CO}-Y(Carboxymethyl)[4Pal]DWL[Bip]V[NMeA][dL][Dab][Cha]V[Cit]C[AEEA][Dap][Aun]-OH; thioether N-14),0.0119
4,CC(C)C[C@@H]1NC(=O)[C@H](Cc2c[nH]c3ccccc23)NC(=O)[C@H](CC(=O)O)NC(=O)[C@H](Cc2ccncc2)NC(=O)[C@H](Cc2ccc(OCC(=O)O)cc2)NC(=O)CSC[C@@H](C(=O)N[C@@H](CCCN)C(=O)NCCOCCOCC(=O)NCCCCCCCCCCC(=O)O)NC(=O)[C@H](CCCNC(N)=O)NC(=O)[C@H](C(C)C)NC(=O)[C@H](CC2CCCCC2)NC(=O)[C@H](CN)NC(=O)[C@@H](CC(C)C)NC(=O)[C@H](C)N(C)C(=O)[C@H](C(C)C)NC(=O)[C@H](Cc2ccc(-c3ccccc3)cc2)NC1=O [Example 2166] ({CH2CO}-Y(Carboxymethyl)[4Pal]DWL[Bip]V[NMeA][dL][Dap][Cha]V[Cit]C[Orn][AEEA][Aun]-OH; thioether N-14),0.0247
5,CC(C)C[C@@H]1NC(=O)[C@H](Cc2c[nH]c3ccccc23)NC(=O)[C@H](CC(=O)O)NC(=O)[C@H](Cc2ccncc2)NC(=O)[C@H](Cc2ccc(OCC(=O)O)cc2)NC(=O)CSC[C@@H](C(=O)N[C@@H](CCCNC(N)=O)C(=O)NCCOCCOCC(=O)NCCCCCCCCCCC(=O)O)NC(=O)[C@H](CCCNC(N)=O)NC(=O)[C@H](C(C)C)NC(=O)[C@H](CC2CCCCC2)NC(=O)[C@H](CCN)NC(=O)[C@@H](CC(C)C)NC(=O)[C@H](C)N(C)C(=O)[C@H](C(C)C)NC(=O)[C@H](Cc2ccc(-c3ccccc3)cc2)NC1=O [Example 2167] ({CH2CO}-Y(Carboxymethyl)[4Pal]DWL[Bip]V[NMeA][dL][Dab][Cha]V[Cit]C[Cit][AEEA][Aun]-OH; thioether N-14),0.0244

# Now from value to molecule:
row,IC50 [µM],SMILES
1,0.009,CC(C)C[C@@H]1NC(=O)[C@H](Cc2c[nH]c3ccccc23)NC(=O)[C@H](CC(=O)O)NC(=O)[C@H](Cc2ccncc2)NC(=O)[C@H](Cc2ccc(OCC(=O)O)cc2)NC(=O)CSC[C@@H](C(=O)NCCOCCOCC(=O)N[C@@H](CCCN)C(=O)NCCCCCCCCCCC(=O)O)NC(=O)[C@H](CCCNC(N)=O)NC(=O)[C@H](C(C)C)NC(=O)[C@H](CC2CCCCC2)NC(=O)[C@H](CCN)NC(=O)[C@@H](CC(C)C)NC(=O)[C@H](C)N(C)C(=O)[C@H](C(C)C)NC(=O)[C@H](Cc2ccc(-c3ccccc3)cc2)NC1=O [Example 2168] ({CH2CO}-Y(Carboxymethyl)[4Pal]DWL[Bip]V[NMeA][dL][Dab][Cha]V[Cit]C[AEEA][Orn][Aun]-OH; thioether N-14)
2,0.0126,CC(=O)NCCC[C@@H]1NC(=O)[C@H](C(C)C)NC(=O)[C@H](CC2CCCCC2)NC(=O)[C@H](CCN)NC(=O)[C@@H](CC(C)C)NC(=O)[C@H](C)N(C)C(=O)[C@H](C(C)C)NC(=O)[C@H](Cc2ccc(-c3ccccc3)cc2)NC(=O)[C@H](CC(C)C)NC(=O)[C@H](Cc2c[nH]c3ccccc23)NC(=O)[C@H](CC(=O)O)NC(=O)[C@H](Cc2ccncc2)NC(=O)[C@H](Cc2ccc(OCC(=O)O)cc2)NC(=O)CSC[C@@H](C(=O)NCC(=O)NCCOCCOCC(=O)N[C@@H](CN)C(=O)NCCCCCCCCCCC(=O)O)NC1=O [Example 2169] ({CH2CO}-Y(Carboxymethyl)[4Pal]DWL[Bip]V[NMeA][dL][Dab][Cha]V[Orn](Ac)CG[AEEA][Dap][Aun]-OH; thioether N-14)
3,0.0086,CC(C)C[C@@H]1NC(=O)[C@H](Cc2c[nH]c3ccccc23)NC(=O)[C@H](CC(=O)O)NC(=O)[C@H](Cc2ccncc2)NC(=O)[C@H](Cc2ccc(OCC(=O)O)cc2)NC(=O)CSC[C@@H](C(=O)NCC(=O)NCCOCCOCC(=O)N[C@@H](CCN)C(=O)NCCCCCCCCCCC(=O)O)NC(=O)[C@H](CCCNC(N)=O)NC(=O)[C@H](C(C)C)NC(=O)[C@H](CC2CCCCC2)NC(=O)[C@H](CCN)NC(=O)[C@@H](CC(C)C)NC(=O)[C@H](C)N(C)C(=O)[C@H](C(C)C)NC(=O)[C@H](Cc2ccc(-c3ccccc3)cc2)NC1=O [Example 2170] ({CH2CO}-Y(Carboxymethyl)[4Pal]DWL[Bip]V[NMeA][dL][Dab][Cha]V[Cit]CG[AEEA][Dab][Aun]-OH; thioether N-14)
4,0.013,CC(C)C[C@@H]1NC(=O)[C@H](Cc2c[nH]c3ccccc23)NC(=O)[C@H](CC(=O)O)NC(=O)[C@H](Cc2ccncc2)NC(=O)[C@H](Cc2ccc(OCC(=O)O)cc2)NC(=O)CSC[C@@H](C(=O)NCC(=O)NCCOCCOCC(=O)N[C@@H](CCCCN)C(=O)NCCCCCCCCCCC(=O)O)NC(=O)[C@H](CCCNC(N)=O)NC(=O)[C@H](C(C)C)NC(=O)[C@H](CC2CCCCC2)NC(=O)[C@H](CCN)NC(=O)[C@@H](CC(C)C)NC(=O)[C@H](C)N(C)C(=O)[C@H](C(C)C)NC(=O)[C@H](Cc2ccc(-c3ccccc3)cc2)NC1=O [Example 2172] ({CH2CO}-Y(Carboxymethyl)[4Pal]DWL[Bip]V[NMeA][dL][Dab][Cha]V[Cit]CG[AEEA]K[Aun]-OH; thioether N-14)
